Source: patent publication US6537991B1, “Method of treating a peripheral neuropathic pain” (AstraZeneca AB, priority 1999, dated 2003)
Where two headings read alike, the source gives them in different places.

Tests used:
[1] = system: chronic constrictive injury (CCI) model (loosely ligated common sciatic nerve); assay: chronic constrictive injury (CCI) model of peripheral mononeuropathy; type: in vivo, rat; details: oral test doses of 0.3, 3 and 30 mg/kg/day (dosed four times a day)
Source text: The development of a rodent model of peripheral mononeuropathy (Pain, 33, 1988, 87-107; Exp Brain Res, 113, 1997, 200-206; and Exp Brain Res, 120, 1998, 432-438) has provided a new approach for studies of post-injury neuropathic pain. The model produces neuropathic pain syndromes in the rat by loosely ligating the common sciatic nerve and has been described as a chronic constrictive injury (CCI) model. The behavioural, morphological and autoradiographic data obtained from the rodents in this model closely represent the clinical features of post-injury neuropathic pain. […] This model has value therefore in predicting efficacy of compounds against neuropathic pain.
The identification of compounds which are useful in the treatment or prevention of neuropathic pain is the subject of the present invention. These properties may be assessed, for example, using the CCI model as described in Pain, 33, 1988, 87-107.

[2] = system: chronic constrictive injury (CCI) model (loosely ligated common sciatic nerve); details: cited from earlier work

## CCN(Cc1cc(Cl)ccc1OCC(C)C)c1ccc(C(=O)NS(=O)(=O)c2c(C)noc2C)nn1 [d), N-(3,5-dimethylisoxazol-4-ylsulphonyl)-6-[N-(5-chloro-2-(2-methylpropoxy)benzyl)-N-ethylamino]pyridazine-3-carboxamide]
[1]
  activity in the CCI model: demonstrates activity

## NCC1(CC(=O)O)CCCCC1 [gabapentin]
[2]; Eur J Pharmacol, 324, 1997, 157-160
  activity in the CCI model: demonstrates activity

## O=C(c1ccccc1)c1ccc2n1CCC2C(=O)O (stereo not drawn) [ketorolac tromethamine]
[2]; dosed intrathecally, Can J Anaesth, 1996, 43, 967
  activity compared to morphine: modest activity
